Active and inactive are the calls of the source. The rule behind the calls is not given here.
Columns and labels:
[1] = target: T1, Cannabinoid receptor 1 (Homo sapiens, UniProt P21554); assay: Agonist activity at human CB1 receptor expressed in CHO cells assessed as induction of Ca2+ flux at 10 uM after 10 mins by Fluor-4 AM dye based assay; assay type: cell-based
[2] = target: T2, Cannabinoid receptor 2 (Homo sapiens, UniProt P34972); assay: Agonist activity at human CB2 receptor expressed in CHO cells assessed as induction of Ca2+ flux after 10 mins by Fluor-4 AM dye based assay relative to CP55940; assay type: functional, cell-based
T2 sequence (P34972 whole entry): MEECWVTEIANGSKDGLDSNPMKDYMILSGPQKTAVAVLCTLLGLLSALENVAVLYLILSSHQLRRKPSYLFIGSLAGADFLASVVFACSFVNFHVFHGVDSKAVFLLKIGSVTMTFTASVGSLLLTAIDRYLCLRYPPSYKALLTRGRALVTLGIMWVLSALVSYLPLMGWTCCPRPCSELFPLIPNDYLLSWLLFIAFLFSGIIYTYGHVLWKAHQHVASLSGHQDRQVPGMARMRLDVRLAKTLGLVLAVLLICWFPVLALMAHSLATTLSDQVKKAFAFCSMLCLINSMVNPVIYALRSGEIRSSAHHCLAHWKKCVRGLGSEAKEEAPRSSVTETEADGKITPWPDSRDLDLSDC

[3] = target: T3, Cannabinoid receptor 1 (CB1) (Homo sapiens, UniProt P21554); assay: Antagonist activity at human CB1 receptor expressed in CHO cells assessed as inhibition of CP55940-induced Ca2+ flux at 10 uM preincubated for 10 mins followed by agonist addition by Fluor-4 AM dye based assay; assay type: cell-based; details: CHO cells expressing human CB1 receptor
T3 sequence (P21554 whole entry): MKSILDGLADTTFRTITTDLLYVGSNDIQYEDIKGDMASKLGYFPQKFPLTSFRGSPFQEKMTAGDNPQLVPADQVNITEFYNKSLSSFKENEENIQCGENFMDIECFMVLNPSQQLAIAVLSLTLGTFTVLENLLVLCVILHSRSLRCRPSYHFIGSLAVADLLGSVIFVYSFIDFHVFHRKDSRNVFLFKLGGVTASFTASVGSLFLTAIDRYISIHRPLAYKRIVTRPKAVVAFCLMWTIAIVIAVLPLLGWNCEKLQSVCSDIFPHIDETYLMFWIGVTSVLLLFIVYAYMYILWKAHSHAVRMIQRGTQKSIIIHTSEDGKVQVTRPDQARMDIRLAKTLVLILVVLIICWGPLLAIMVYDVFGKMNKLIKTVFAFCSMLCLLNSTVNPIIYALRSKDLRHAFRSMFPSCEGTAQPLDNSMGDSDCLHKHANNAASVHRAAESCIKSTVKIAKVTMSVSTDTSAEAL

[4] = target: T2, Cannabinoid receptor 2; assay: Agonist activity at human CB2 receptor expressed in CHO cells assessed as induction of Ca2+ flux after 10 mins by Fluor-4 AM dye based assay; assay type: functional, cell-based
[5] = target: T2, Cannabinoid receptor 2; assay: Antagonist activity at human CB2 receptor expressed in CHO cells assessed as inhibition of CP55940-induced Ca2+ flux at 10 uM preincubated for 10 mins followed by agonist addition by Fluor-4 AM dye based assay; assay type: functional, cell-based
[6] = target: Cannabinoid receptor 1 (Rattus norvegicus, UniProt P20272); assay: Agonist activity at rat CB1 receptor expressed in mouse AtT20 cells by FLIPR membrane potential assay; assay type: cell-based
Chain of Cannabinoid receptor 1 (Rattus norvegicus, UniProt P20272) (P20272 whole entry): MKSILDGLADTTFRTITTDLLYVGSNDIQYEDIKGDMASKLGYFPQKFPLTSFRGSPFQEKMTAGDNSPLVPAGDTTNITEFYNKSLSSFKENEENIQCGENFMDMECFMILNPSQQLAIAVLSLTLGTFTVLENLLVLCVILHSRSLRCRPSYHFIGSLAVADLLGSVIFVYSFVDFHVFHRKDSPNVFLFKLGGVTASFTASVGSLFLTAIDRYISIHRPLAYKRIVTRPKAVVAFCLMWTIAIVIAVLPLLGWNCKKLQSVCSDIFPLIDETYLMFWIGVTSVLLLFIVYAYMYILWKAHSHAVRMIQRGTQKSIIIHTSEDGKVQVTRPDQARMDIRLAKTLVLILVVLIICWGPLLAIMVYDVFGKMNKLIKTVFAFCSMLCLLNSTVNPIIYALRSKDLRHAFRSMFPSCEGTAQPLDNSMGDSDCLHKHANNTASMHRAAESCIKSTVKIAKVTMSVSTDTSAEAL

[7] = target: T2, Cannabinoid receptor 2; assay: Agonist activity at human N-terminal HA-tagged CB2 receptor expressed in mouse AtT20 cells by FLIPR membrane potential assay; assay type: cell-based
[8] = target: T1, Cannabinoid receptor 1; assay: Agonist activity at human CB1 receptor expressed in CHO cells assessed as induction of Ca2+ flux after 10 mins by Fluor-4 AM dye based assay; assay type: cell-based
[9] = target: T3, Cannabinoid receptor 1 (CB1); assay: Agonist activity at human CB1 receptor expressed in CHO cells assessed as induction of Ca2+ flux after 10 mins by Fluor-4 AM dye based assay relative to CP55940; assay type: cell-based; details: CHO cells expressing human CB1 receptor
[10] = target: T2, Cannabinoid receptor 2; assay: Agonist activity at human CB2 receptor expressed in CHO cells assessed as induction of Ca2+ flux at 10 uM after 10 mins by Fluor-4 AM dye based assay; assay type: functional, cell-based
[11] = target: T2, Cannabinoid receptor 2; assay: Antagonist activity at human CB2 receptor expressed in CHO cells assessed as inhibition of CP55940-induced Ca2+ flux preincubated for 10 mins followed by agonist addition by Fluor-4 AM dye based assay; assay type: functional, cell-based

T1 sequence (P21554 whole entry): as the sequence (P21554 whole entry) above

| SMILES | Activity [1] [%] | Emax [2] | inhibition at 10 min, 10 µM [3] [%] | EC50 [4] [nM] | inhibition [5] [%] | EC50 [6] [nM] | EC50 [7] [nM] | EC50 [8] [nM] | Emax at 10 min [9] [%] | Activity [10] [%] | IC50 [11] [nM] |
| --- | --- | --- | --- | --- | --- | --- | --- | --- | --- | --- | --- |
| CC(C)(C)NC(=O)c1cc2ccccc2n1CCCCCO | < 50 | 51.7% | < 50 | 430 | < 50 | – | – | – | – | – | – |
| CCCCCn1c(C(=O)NC23CC4CC(CC(C4)C2)C3)cc2ccccc21 | < 50 | 53.3% | < 50 | 720 | < 50 | – | – | – | – | – | – |
| O=C(NC12CC3CC(CC(C3)C1)C2)c1cc2ccccc2n1CCCCC(F)F | < 50 | 60% | < 50 | 92 | < 50 | – | – | – | – | – | – |
| O=C(NC12CC3CC(CC(C3)C1)C2)c1cc2ccccc2[nH]1 | < 50 | 66.7% | < 50 | 980 | < 50 | – | – | – | – | – | – |
| N#CCCCn1c(C(=O)NC23CC4CC(CC(C4)C2)C3)cc2ccccc21 | < 50 | 61.7% | < 50 | 270 | < 50 | – | – | – | – | – | – |
| CCCCCn1cc(C(=O)C23CC4CC(CC(C4)C2)C3)c2ccccc21 | – | – | – | – | – | 35 to 40 | 29 to 89 | – | – | – | – |
| NCCCCCn1c(C(=O)NC23CC4CC(CC(C4)C2)C3)cc2ccccc21 | < 50 | 93.3% | < 50 | 8600 | < 50 | – | – | – | – | – | – |
| COCCCCCn1cc(C(=O)NC23CC4CC(CC(C4)C2)C3)c2ccccc21 | < 50 | 70% | < 50 | 82 | < 50 | – | – | – | – | – | – |
| O=C(NC12CC3CC(CC(C3)C1)C2)c1cn(CC2CCOCC2)c2ccccc12 | – | 76.7% | < 50 | 38 | < 50 | – | – | 84 | 133 | – | – |
| COc1cccc2c1c(C(=O)NC13CC4CC(CC(C4)C1)C3)cn2CCN1CCOCC1 | < 50 | – | < 50 | – | < 50 | – | – | – | – | < 50 | – |
| COc1cccc2c(C(=O)NC34CC5CC(CC(C5)C3)C4)cn(CCN3CCOCC3)c12 | < 50 | – | < 50 | > 100000 | – | – | – | – | – | < 50 | 16 |
| N#CCCn1c(C(=O)NC23CC4CC(CC(C4)C2)C3)cc2ccccc21 | < 50 | 93.3% | < 50 | 150 | < 50 | – | – | – | – | – | – |
| O=C(NC1CCCCC1)c1cc2ccccc2n1CCCCCO | < 50 | 50% | < 50 | 420 | < 50 | – | – | – | – | – | – |
| C[S+]([O-])c1cccc2c(C(=O)NC34CC5CC(CC(C5)C3)C4)cn(CCN3CCOCC3)c12 (stereo unspecified) | < 50 | – | < 50 | – | < 50 | – | – | – | – | < 50 | – |
| O=C(NC12CC3CC(CC(C3)C1)C2)c1cn(CCCCO)c2ccccc12 | – | 68.3% | < 50 | 160 | < 50 | – | – | 13000 | 58.3 | – | – |
| O=C(NC12CC3CC(CC(C3)C1)C2)c1cc2ccccc2n1CCCCCF | < 50 | 53.3% | < 50 | 140 | < 50 | – | – | – | – | – | – |
| O=C(NC12CC3CC(CC(C3)C1)C2)c1cc2ccccc2n1CCN1CCOC1=O | < 50 | 66.7% | < 50 | 220 | < 50 | – | – | – | – | – | – |
| N=C(N)NCCCCCn1c(C(=O)NC23CC4CC(CC(C4)C2)C3)cc2ccccc21 | < 50 | – | < 50 | – | < 50 | – | – | – | – | < 50 | – |
| O=C(NC1CCCC1)c1cc2ccccc2n1CCCCCO | < 50 | – | < 50 | – | < 50 | – | – | – | – | < 50 | – |
| COc1ccc2c(c1)c(C(=O)NC13CC4CC(CC(C4)C1)C3)cn2CCN1CCOCC1 | < 50 | – | < 50 | – | < 50 | – | – | – | – | < 50 | – |
| N#CCCn1cc(C(=O)NC23CC4CC(CC(C4)C2)C3)c2ccccc21 | < 50 | 73.3% | < 50 | 180 | < 50 | – | – | – | – | – | – |

| SMILES | Activity [1] [%] | Emax [2] | inhibition at 10 min, 10 µM [3] [%] | EC50 [4] [nM] | inhibition [5] [%] | EC50 [6] [nM] | EC50 [7] [nM] | EC50 [8] [nM] | Emax at 10 min [9] [%] | Activity [10] [%] | IC50 [11] [nM] |
| --- | --- | --- | --- | --- | --- | --- | --- | --- | --- | --- | --- |
| O=C(NC12CC3CC(CC(C3)C1)C2)c1cc2ccccc2n1CC1CCOCC1 | < 50 | 41.7% | < 50 | 410 | < 50 | – | – | – | – | – | – |
| N#CCCCn1cc(C(=O)NC23CC4CC(CC(C4)C2)C3)c2ccccc21 | – | 70% | < 50 | 31 | < 50 | – | – | 630 | 105 | – | – |
| N#CCn1cc(C(=O)NC23CC4CC(CC(C4)C2)C3)c2ccccc21 | < 50 | 66.3% | < 50 | 410 | < 50 | – | – | – | – | – | – |
| N#CCCCCn1c(C(=O)NC23CC4CC(CC(C4)C2)C3)cc2ccccc21 | < 50 | 41.7% | < 50 | 75 | < 50 | – | – | – | – | – | – |
| CCCCCn1cc(C(=O)CC23CC4CC(CC(C4)C2)C3)c2ccccc21 | – | – | – | – | – | 35 to 40 | 29 to 89 | – | – | – | – |
| O=C(NC12CC3CC(CC(C3)C1)C2)c1c(F)c2ccccc2n1CCCCO | < 50 | 46.7% | < 50 | 410 | < 50 | – | – | – | – | – | – |
| Cc1cccc2c(C(=O)NC34CC5CC(CC(C5)C3)C4)c[nH]c12 | < 50 | 60% | < 50 | 500 | < 50 | – | – | – | – | – | – |
| O=CCCCCn1c(C(=O)NC23CC4CC(CC(C4)C2)C3)cc2ccccc21 | < 50 | 73.3% | < 50 | 180 | < 50 | – | – | – | – | – | – |
| CSc1cccc2c(C(=O)NC34CC5CC(CC(C5)C3)C4)cn(CCN3CCOCC3)c12 | < 50 | – | < 50 | > 100000 | – | – | – | – | – | < 50 | 28 |
| N#CCCCCn1c(C(=O)Nc2ccccc2)cc2ccccc21 | < 50 | 48.3% | < 50 | 200 | < 50 | – | – | – | – | – | – |
| O=C(NC12CC3CC(CC(C3)C1)C2)c1cc2ccccc2n1CCCCCO | < 50 | 70% | < 50 | 100 | < 50 | – | – | – | – | – | – |
| Cc1cccc2c(C(=O)NC34CC5CC(CC(C5)C3)C4)cn(CCN3CCOCC3)c12 | – | inactive | < 50 | – | < 50 | – | – | 6700 | 63.3 | < 50 | – |
| O=C(NC12CC3CC(CC(C3)C1)C2)c1cn(CCN2CCOCC2)c2ccccc12 | – | 56.7% | < 50 | 59 | < 50 | – | – | 3300 | 75 | – | > 100000 |
| O=C(NC12CC3CC(CC(C3)C1)C2)c1[nH]c2ccccc2c1F | < 50 | 83.3% | < 50 | 3800 | < 50 | – | – | – | – | – | – |
| O=C(NC12CC3CC(CC(C3)C1)C2)c1cc2ccccc2n1CCCO | < 50 | 86.7% | < 50 | 160 | < 50 | – | – | – | – | – | – |
| NCCCCn1c(C(=O)NC23CC4CC(CC(C4)C2)C3)cc2ccccc21 | < 50 | 86.7% | < 50 | 4700 | < 50 | – | – | – | – | – | – |
| O=C(NC12CC3CC(CC(C3)C1)C2)c1cc2ccccc2n1CCCC(F)(F)F | < 50 | 63.3% | < 50 | 490 | < 50 | – | – | – | – | – | – |
| O=C(NC12CC3CC(CC(C3)C1)C2)c1c[nH]c2ccccc12 | < 50 | 75% | < 50 | 630 | < 50 | – | – | – | – | – | – |
| O=C(NC12CC3CC(CC(C3)C1)C2)c1cn(CCCCCO)c2ccccc12 | – | 63.3% | < 50 | 62 | < 50 | – | – | 4100 | 76.7 | – | – |
| O=C(NC12CC3CC(CC(C3)C1)C2)c1c(F)c2ccccc2n1CCCCCO | < 50 | 60% | < 50 | 610 | < 50 | – | – | – | – | – | – |
| O=C(O)CCCCn1c(C(=O)NC23CC4CC(CC(C4)C2)C3)cc2ccccc21 | < 50 | 43.3% | < 50 | 7130 | < 50 | – | – | – | – | – | – |
